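In this assay, cells in 96-well plates receive the compound at five concentrations for 48 hours. Endpoints are linearly interpolated between the surrounding concentrations. Abbreviation: GI50, concentration required for 50% inhibition of growth.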 Active and inactive are the calls of the source. Rule as the data show it: active = GI50 up to about 1.1 µM and inactive = higher.
What was measured:
Assay in all cases: NCI-60 cell line screen, 48 h
CAKI-1 = system: CAKI-1
Hs-578T = system: Hs-578T
MDA-MB-435 = system: MDA-MB-435
PC-3 = system: PC-3
SNB-19 = system: SNB-19

Measured: GI50

NC(CCCCCP(=O)(c1ccccc1)C1C=CC=CC1)C(=O)O (stereo not given)
inactive: CAKI-1 > 100 µM | Hs-578T > 100 µM | MDA-MB-435 > 100 µM | PC-3 > 100 µM | SNB-19 > 100 µM
